US20190070396A1 (priority 2017, published 2019)
Where two headings read alike, the source gives them in different places.

Columns and labels:
[1] = Beagle, dog, in vivo
[2] = dog, in vivo, 0.8 mg
in vivo = settings: dog

Compound | buccal increase over basal level as share of the increase demonstrated by benchmark intramuscular injection [1] | Tmax [2] | AUC (in vivo; 0.8 mg) | Cmax (in vivo; 0.8 mg) | AUC (in vivo; 8 mg) | Cmax (in vivo; 8 mg) | Tmax (in vivo; 8 mg) | AUC (in vivo; im, 0.4 mg) | Cmax (in vivo; im, 0.4 mg) | Tmax (in vivo; im, 0.4 mg)
CNC[C@H](O)c1ccc(O)c(O)c1 [epinephrine] | approximately 20% |  |  |  |  |  |  |  |  | 
C=CCN1CC[C@]23c4c5ccc(O)c4O[C@H]2C(=O)CC[C@@]3(O)[C@H]1C5 [naloxone] |  | 15 min | 8.33 ng·h/mL | 25 ng/mL | 58.3 ng·h/mL | 52 ng/mL | 18 min | 10 ng·h/mL | 9 ng/mL | 22 min
